Earlier results as cited in patent US11883453B2, “Formulation based on medicinal plant, or part or extract thereof, use of the formulation and product including said formulation” (priority 2018, dated 2024).

Assays:
3T3 fibroblast strains [1] = details: Scratch Assay, 3T3 fibroblasts, compared to Calendula extract
[2] = rate proportional to concentration
3T3 fibroblast strains [3] = details: MTT, 3T3 fibroblasts
[4] = disk-diffusion

Structure (SMILES)	Effect on in vitro healing (3T3 fibroblast strains [1])	Elimination of free radicals [2]	Cytotoxicity (3T3 fibroblast strains [3])	Antimicrobial activity (inhibition halos in agar) [4]
CCCCCCCCCCCCCC(=O)OC1CCC2(C)C(CCC3(C)C2CCC2C4C(C)C(C)=CCC4(C)C(O)CC23C)C1(C)C (centres unmarked) [faradiol myristate]	partial role in the healing process compared to the extract			
CCCCCCCCCCCCCCCC(=O)OC1CCC2(C)C(CCC3(C)C2CCC2C4C(C)C(C)=CCC4(C)C(O)CC23C)C1(C)C (centres unmarked) [faradiol palmitate]	partial role in the healing process compared to the extract			
C=C(C)[C@@H]1CC[C@]2(C)CC[C@]3(C)[C@H](CC[C@@H]4[C@@]5(C)CC[C@H](O)C(C)(C)[C@@H]5CC[C@]43C)[C@@H]12 [Lupeol]		excellent properties to eliminate free radicals	no toxicity found	confirmed the antimicrobial activity
